Experimental data published in ChEMBL document CHEMBL3885881, “DrugMatrix”.

Species on record: Rattus norvegicus
Assay: DrugMatrix - Regimen: Daily Repeat
Format: toxicity, organism-based, Sprague-Dawley
Set-up: regimen Daily Repeat, gender Male, age 6-8 weeks
Details: in vivo, po, route oral GAVAGE, […]; for ABSOLUTE BASOPHIL / ABSOLUTE EOSINOPHIL / ABSOLUTE LYMPHOCYTE / ABSOLUTE MONOCYTE / ABSOLUTE SEGMENTED NEUTROPHIL / BASOPHIL / EOSINOPHIL / ERYTHROCYTE COUNT / HEMATOCRIT / HEMOGLOBIN / LEUKOCYTE COUNT / LYMPHOCYTE / MEAN CORPUSCULAR HEMOGLOBIN / MEAN CORPUSCULAR HEMOGLOBIN CONCENTRATION / MEAN CORPUSCULAR VOLUME / MONOCYTE / NEUTROPHIL / NUCLEATED RED BLOOD CELLS / PLATELET COUNT: tissue Blood; for ALANINE AMINOTRANSFERASE / ALBUMIN / ALKALINE PHOSPHATASE / ASPARTATE AMINOTRANSFERASE / BLOOD UREA NITROGEN / CARBON DIOXIDE / CHLORIDE / CHOLESTEROL / CREATINE PHOSPHOKINASE / CREATININE / GLUCOSE / LACTATE DEHYDROGENASE / LIPASE / PHOSPHORUS / POTASSIUM / SODIUM / TOTAL BILIRUBIN / TOTAL PROTEIN / URIC ACID: tissue Plasma
[1] = 0 mg/kg, 72 h, dose level Control, time 3 day
[2] = 0 mg/kg, 120 h, dose level Control, time 5 day
[3] = 30 mg/kg, 72 h, dose level Low, time 3 day
[4] = 30 mg/kg, 120 h, dose level Low, time 5 day

COc1ccc2[nH]c([S+]([O-])Cc3ncc(C)c(OC)c3C)nc2c1 (configuration not stated) [OMEPRAZOLE]
ABSOLUTE BASOPHIL [1]: 0 CELLS/uL
ABSOLUTE EOSINOPHIL [1]: 70.67 CELLS/uL
ABSOLUTE LYMPHOCYTE [1]: 12761.5 CELLS/uL
ABSOLUTE MONOCYTE [1]: 214.17 CELLS/uL
ABSOLUTE SEGMENTED NEUTROPHIL [1]: 987 CELLS/uL
BASOPHIL [1]: 0%
EOSINOPHIL [1]: 0.5%
ERYTHROCYTE COUNT [1]: 5.61 x10E6/uL
HEMATOCRIT [1]: 35.22%
HEMOGLOBIN [1]: 13.57 G/DL
LEUKOCYTE COUNT [1]: 14.03 x10E3/uL
LYMPHOCYTE [1]: 91%
MEAN CORPUSCULAR HEMOGLOBIN [1]: 24.25 pg
MEAN CORPUSCULAR HEMOGLOBIN CONCENTRATION [1]: 38.52 G/DL
MEAN CORPUSCULAR VOLUME [1]: 62.9 fL
MONOCYTE [1]: 1.5%
NEUTROPHIL [1]: 7%
NUCLEATED RED BLOOD CELLS [1]: 0 /100WBC
PLATELET COUNT [1]: 997.5 x10E3/uL
ALANINE AMINOTRANSFERASE [1]: 66.5 u/L
ALBUMIN [1]: 3.98 G/DL
ALKALINE PHOSPHATASE [1]: 350 u/L
ASPARTATE AMINOTRANSFERASE [1]: 83.83 u/L
BLOOD UREA NITROGEN [1]: 12.33 mg/dL
CARBON DIOXIDE [1]: 30.33 mmol/L
CHLORIDE [1]: 100 MEQ/L
CHOLESTEROL [1]: 75 mg/dL
CREATINE PHOSPHOKINASE [1]: 200 u/L
CREATININE [1]: 0.17 mg/dL
GLUCOSE [1]: 170 mg/dL
LACTATE DEHYDROGENASE [1]: 89.33 u/L
LIPASE [1]: 10.33 u/L
PHOSPHORUS [1]: 10.88 mg/dL
POTASSIUM [1]: 6.13 MEQ/L
SODIUM [1]: 140.53 MEQ/L
TOTAL BILIRUBIN [1]: 0.2 mg/dL
TOTAL PROTEIN [1]: 5.67 G/DL
URIC ACID [1]: 1.6 mg/dL
ABSOLUTE BASOPHIL [2]: 0 CELLS/uL
ABSOLUTE EOSINOPHIL [2]: 0 CELLS/uL
ABSOLUTE LYMPHOCYTE [2]: 9526.67 CELLS/uL
ABSOLUTE MONOCYTE [2]: 134.17 CELLS/uL
ABSOLUTE SEGMENTED NEUTROPHIL [2]: 922.5 CELLS/uL
BASOPHIL [2]: 0%
EOSINOPHIL [2]: 0%
ERYTHROCYTE COUNT [2]: 5.58 x10E6/uL
HEMATOCRIT [2]: 34.78%
HEMOGLOBIN [2]: 13.5 G/DL
LEUKOCYTE COUNT [2]: 10.58 x10E3/uL
LYMPHOCYTE [2]: 90.17%
MEAN CORPUSCULAR HEMOGLOBIN [2]: 24.27 pg
MEAN CORPUSCULAR HEMOGLOBIN CONCENTRATION [2]: 38.82 G/DL
MEAN CORPUSCULAR VOLUME [2]: 62.48 fL
MONOCYTE [2]: 1.17%
NEUTROPHIL [2]: 8.67%
NUCLEATED RED BLOOD CELLS [2]: 0.17 /100WBC
PLATELET COUNT [2]: 807.17 x10E3/uL
ALANINE AMINOTRANSFERASE [2]: 66.83 u/L
ALBUMIN [2]: 3.73 G/DL
ALKALINE PHOSPHATASE [2]: 286.17 u/L
ASPARTATE AMINOTRANSFERASE [2]: 142.33 u/L
BLOOD UREA NITROGEN [2]: 14.67 mg/dL
CARBON DIOXIDE [2]: 25.5 mmol/L
CHLORIDE [2]: 89.17 MEQ/L
CHOLESTEROL [2]: 75.17 mg/dL
CREATINE PHOSPHOKINASE [2]: 310.67 u/L
CREATININE [2]: 0.2 mg/dL
GLUCOSE [2]: 153 mg/dL
LACTATE DEHYDROGENASE [2]: 1594 u/L
LIPASE [2]: 14.83 u/L
PHOSPHORUS [2]: 11.28 mg/dL
POTASSIUM [2]: 8.46 MEQ/L
SODIUM [2]: 126.88 MEQ/L
TOTAL BILIRUBIN [2]: 0.37 mg/dL
TOTAL PROTEIN [2]: 5.53 G/DL
URIC ACID [2]: 1.52 mg/dL
ABSOLUTE BASOPHIL [3]: 0 CELLS/uL
ABSOLUTE EOSINOPHIL [3]: 80 CELLS/uL
ABSOLUTE LYMPHOCYTE [3]: 11444.67 CELLS/uL
ABSOLUTE MONOCYTE [3]: 85.33 CELLS/uL
ABSOLUTE SEGMENTED NEUTROPHIL [3]: 690 CELLS/uL
BASOPHIL [3]: 0%
EOSINOPHIL [3]: 0.67%
ERYTHROCYTE COUNT [3]: 5.41 x10E6/uL
HEMATOCRIT [3]: 34.37%
HEMOGLOBIN [3]: 13.77 G/DL
LEUKOCYTE COUNT [3]: 12.3 x10E3/uL
LYMPHOCYTE [3]: 93%
MEAN CORPUSCULAR HEMOGLOBIN [3]: 25.47 pg
MEAN CORPUSCULAR HEMOGLOBIN CONCENTRATION [3]: 40.07 G/DL
MEAN CORPUSCULAR VOLUME [3]: 63.53 fL
MONOCYTE [3]: 0.67%
NEUTROPHIL [3]: 5.67%
NUCLEATED RED BLOOD CELLS [3]: 0.67 /100WBC
PLATELET COUNT [3]: 1225.33 x10E3/uL
ALANINE AMINOTRANSFERASE [3]: 59.67 u/L
ALBUMIN [3]: 4.03 G/DL
ALKALINE PHOSPHATASE [3]: 348.67 u/L
ASPARTATE AMINOTRANSFERASE [3]: 77.33 u/L
BLOOD UREA NITROGEN [3]: 12 mg/dL
CARBON DIOXIDE [3]: 29.33 mmol/L
CHLORIDE [3]: 101 MEQ/L
CHOLESTEROL [3]: 72.33 mg/dL
CREATINE PHOSPHOKINASE [3]: 303.67 u/L
CREATININE [3]: 0.14 mg/dL
GLUCOSE [3]: 175.33 mg/dL
LACTATE DEHYDROGENASE [3]: 111 u/L
LIPASE [3]: 10.33 u/L
PHOSPHORUS [3]: 12.23 mg/dL
POTASSIUM [3]: 6.24 MEQ/L
SODIUM [3]: 143.63 MEQ/L
TOTAL BILIRUBIN [3]: 0.17 mg/dL
TOTAL PROTEIN [3]: 5.8 G/DL
URIC ACID [3]: 1.57 mg/dL
ABSOLUTE BASOPHIL [4]: 0 CELLS/uL
ABSOLUTE EOSINOPHIL [4]: 0 CELLS/uL
ABSOLUTE LYMPHOCYTE [4]: 8312.33 CELLS/uL
ABSOLUTE MONOCYTE [4]: 87.33 CELLS/uL
ABSOLUTE SEGMENTED NEUTROPHIL [4]: 233.67 CELLS/uL
BASOPHIL [4]: 0%
EOSINOPHIL [4]: 0%
ERYTHROCYTE COUNT [4]: 6.01 x10E6/uL
HEMATOCRIT [4]: 36%
HEMOGLOBIN [4]: 13.93 G/DL
LEUKOCYTE COUNT [4]: 8.63 x10E3/uL
LYMPHOCYTE [4]: 96.33%
MEAN CORPUSCULAR HEMOGLOBIN [4]: 23.2 pg
MEAN CORPUSCULAR HEMOGLOBIN CONCENTRATION [4]: 38.73 G/DL
MEAN CORPUSCULAR VOLUME [4]: 59.9 fL
MONOCYTE [4]: 1%
NEUTROPHIL [4]: 2.67%
NUCLEATED RED BLOOD CELLS [4]: 0 /100WBC
PLATELET COUNT [4]: 1213.33 x10E3/uL
ALANINE AMINOTRANSFERASE [4]: 65 u/L
ALBUMIN [4]: 4.2 G/DL
ALKALINE PHOSPHATASE [4]: 440.33 u/L
ASPARTATE AMINOTRANSFERASE [4]: 88.67 u/L
BLOOD UREA NITROGEN [4]: 14 mg/dL
CARBON DIOXIDE [4]: 30 mmol/L
CHLORIDE [4]: 98.67 MEQ/L
CHOLESTEROL [4]: 69 mg/dL
CREATINE PHOSPHOKINASE [4]: 217.67 u/L
CREATININE [4]: 0.27 mg/dL
GLUCOSE [4]: 163.33 mg/dL
LACTATE DEHYDROGENASE [4]: 152.67 u/L
LIPASE [4]: 11.67 u/L
PHOSPHORUS [4]: 11.43 mg/dL
POTASSIUM [4]: 5.8 MEQ/L
SODIUM [4]: 144.67 MEQ/L
TOTAL BILIRUBIN [4]: 0.17 mg/dL
TOTAL PROTEIN [4]: 6.1 G/DL
URIC ACID [4]: 1 mg/dL
